Results from patent US10513512B2, “Flavanone derivatives, and preparation method and use thereof” (Xuanwu Hospital of Capital Medical University, priority 2016, dated 2019).

Legend:
[1] = target: dopamine D2 receptor (DRD2) (Homo sapiens (Human), UniProt P14416); assay: Dopamine D2 receptor antagonism, Fluo-4 calcium fluorescence in HEK293 cells stably expressing DRD2/Gα16; format: cell-based; settings: 50 nM Dopamine as agonist, read-out: IC50 for inhibiting dopamine D2 receptor
From the text: Objective: positive symptoms (hallucination, delusion, etc.) in patients with schizophrenia may be associated with dopamine (DA) hyperfunction in subcortical limbic system, and antipsychotic drugs, which block Dopamine D2 Receptor (DRD2), can effectively control positive symptoms of schizophrenia. By establishing a cell line co-transfected with DRD2 and Gα16, the activated DRD2 can activate Gα16 protein, thereby activating phospholipase C (PLC) to produce inositol 1,4,5-triphosphate (IP3) and diacylglycerol (DAG), wherein IP3 can bind to the IP3 receptor on endoplasmic reticulum and mitochondria, resulting in intracellular calcium release. Therefore, the determination of a change in intracellular calcium can be used as a method for detecting the activated state of DRD2.
Fluo-4/AM was a calcium fluorescent probe indicator for determining calcium ions. In this experiment, a Fluo-4 fluorescence method was used to determine the level of activated Gα protein by measuring the fluorescence intensity excited by intracellular calcium ions. If a compound could activate DRD2, the calcium influx was enhanced; on the contrary, if a compound could antagonize DRD2, the calcium influx was reduced.
Methods: HEK293 cells stably expressing DRD2/Gα16 (a human embryonic kidney cell line, derived from Shanghai Institute of Materia Medica, Chinese Academy of Sciences) were seeded in a 96-well plate (the culture solution was 90% DMEM+10% fetal bovine serum), and incubated overnight. The culture solution was pipetted off, and a freshly prepared dye Fluo-4/AM was added. The cells were incubated in a 37° C. incubator for 40 min. The dye was completely pipetted off. After the cells were washed with a freshly prepared calcium buffer, a calcium buffer (50 μl) dissolved with a test drug was added. FlexStation II instrument was used in the determination. A calcium buffer (25 μl) dissolved with a known agonist was added automatically by the instrument at the fifteenth second, and the fluorescence value at 525 nm (an excitation wavelength of 485 nm) was finally read. […] IC50 value was calculated by GraphPad Prism.

[2] = system: MK-801-induced hyperlocomotion schizophrenia model in mice; assay: MK-801-induced hyperlocomotion schizophrenia model in mice (open-field test); format: in vivo, mouse; settings: within 210 min; for Distance of central district activity / Total distance traveled: 50 mg/kg intragastric, Balb/c mice, MK-801 0.6 mg/kg i.p., Mean ± SE, n = 10; for distance of center square activity, effect in words / total distance of spontaneous activity, effect in words: intragastrical administration, MK-801 model mice
From the text: Objective: Glutamatergic hypofunction is one of the pathogenesis for mental disorders such as schizophrenia. N-methyl-D-aspartic acid (NMDA) receptor antagonists can induce schizophrenia-like effects. In this experiment, a hyperlocomotion schizophrenia model in mice induced by dizocilpine (MK-801), a NMDA receptor antagonist, was used to investigate the in vivo activity of the compounds P6, P5, P4 and P7 of the invention.
Methods: SPF grade inbred Balb/c male mice with no special pathogens (purchased from Laboratory Animal Center of Capital Medical University), weighed (20±2) g, were randomly divided into a control group, a model group, and drug groups. The mice were adapted to the rearing environment for one week, and then were intragastrically administered for 3 days, wherein the control group and model group were intragastrically administered with physiological saline, and on Day 4, the mice were administered prior to test, and then were tested for 60 min in an Open-Field Activity Monitoring System. The control group was then intraperitoneally injected with physiological saline, the model group and the drug groups were intraperitoneally injected with a solution (0.6 mg/kg) of a NMDA receptor antagonist dizocilpine (MK-801), and the mice of these groups were further monitored for spontaneous activity and center square activity within 210 minutes, wherein spontaneous activity was used to reflect the positive symptom of rapid motion in schizophrenia, and center square activity was used to evaluate the anxiety status of schizophrenia.

Cuprizone model mice = assay: Ethological change in Cuprizone model mice (Y-maze and open-field behavior test); format: in vivo, mouse; settings: intragastrical administration; for number of arm entries in Y-maze, effect in words / spontaneous alternation in Y-maze, effect in words: within 8 min; for number of arm entries in Y-maze, effect in words: FIG. 6; for spontaneous alternation in Y-maze, effect in words: FIG. 7; for total distance of spontaneous activity in open-field test, effect in words: within 10 min, FIG. 8
From the text: Objective: neuroinflammation, pathological changes in white matter, and demyelination are the important pathogenesis for many central nervous system diseases. Cuprizone (dicyclohexanoneoxaly dihydrazone) can cause changes such as inflammation, demyelination, axonal injury, and cognitive function impairment. In this experiment, Y-maze and open-field behavior test were used to study the effects of the compounds of the invention on memory function and motion in a Cuprizone mouse model.
Methods: SPF grade inbred C57BL/6 male mice, weighed (20±2) g, were randomly divided into a control group, a model group, and drug groups. The mice were adapted to the rearing environment for 3 days. Then, the control group was fed with a normal feed, and the other groups were fed with a feed containing 0.2% Cuprizone for model establishment. During model establishment, the mice in each group were intragastrically administered with a corresponding dose of drug, and were reared for 5 weeks. The mice were then subjected to the Y-maze and open field behavior test, wherein the number of arm entries in Y-maze was used to reflect the motion of mice; the spontaneous alternation in Y maze was used to reflect the working memory of mice; and the spontaneous activity in open-field behavior test was used to reflect the motion of mice.

[3] = system: myelin basic protein (MBP) in the frontal cortex of Cuprizone model mice; assay: Demyelination in Cuprizone mouse model: MBP content by Western blot; format: in vivo; settings: 25 and 50 mg/kg groups, FIG. 9
From the text: Objectiv: pathological changes in white matter and demyelination are the important pathogenesis for many central nervous system diseases and mental disorders. Cuprizone can cause demyelination and pathological changes in white matter. Myelin basic protein (MBP) is a marker protein for myelination of axons, and is the main component of myelin sheath. In this experiment, Western Blot method was used to study the effects of the compounds of the invention on the MBP content and demyelination in the brain of Cuprizone model mice. Methods: Cuprizone mouse model establishment and administration method were the same as those described in Experimental example 4. After ethological tests were performed, the mice were anaesthetized by intraperitoneal injection of 10% chloral hydrate. The brains were harvested and stored at −80° C. Western blot assay: brain tissue was lysed with lysate to extract protein, and the protein concentration was determined. SDS-PAGE gel electrophoresis was performed, the protein was transferred onto a membrane, and the membrane was blocked. The protein was incubated with an anti-MBP antibody (a primary antibody) overnight at 4° C. in a refrigerator. […] Signal intensity for each protein band was analyzed using FluorChem 8900 gray-scale analysis software.

[4] = system: Iba-1-labeled microglial cells in the brain of Cuprizone model mice; assay: Microglial cell activation in Cuprizone mouse model: Iba-1 immunohistochemical staining; format: in vivo; settings: 25, 50 mg/kg, FIG. 10
From the text: Objective: microglial activation and neuroinflammation are the important pathogenesis for many central nervous system diseases. Iba-1 could specifically label microglial cells. In this experiment, immunohistochemical method was used to study the effects of the compounds of the invention on Iba-1-labeled microglial cells in the brain of Cuprizone model mice.
Methods: Cuprizone mouse model establishment and administration method were the same as those described in Experimental example 4. After ethological tests were performed, the mice were anaesthetized by intraperitoneal injection of 10% chloral hydrate. After perfusion, brain tissue was taken and fixed with […] paraformaldehyde, and then frozen and sliced. Immunohistochemical staining: the frozen sections were inactivated with 3% H2O2 for 10 min and rinsed with PBS; the tissues were blocked with 10% serum and incubated at 37° C. for 1 h. Serum was washed off and a primary antibody (an anti-Iba-1 antibody) was added dropwise. The resultant mixture was kept at 4° C. overnight. After rinsing with PBST, a biotin-conjugated goat anti-rabbit IgG antibody (a secondary antibody) was added dropwise, and incubated at 37° C. for 2 hrs. After rinsing with PBST, a horseradish peroxidase-conjugated streptavidin (a third antibody) was added dropwise, and incubated at 37° C. for 2 hrs. […] Iba-1 positive cells were observed under microscope, and counted.

dopamine D2 receptor (DRD2), sequence (P14416 whole entry): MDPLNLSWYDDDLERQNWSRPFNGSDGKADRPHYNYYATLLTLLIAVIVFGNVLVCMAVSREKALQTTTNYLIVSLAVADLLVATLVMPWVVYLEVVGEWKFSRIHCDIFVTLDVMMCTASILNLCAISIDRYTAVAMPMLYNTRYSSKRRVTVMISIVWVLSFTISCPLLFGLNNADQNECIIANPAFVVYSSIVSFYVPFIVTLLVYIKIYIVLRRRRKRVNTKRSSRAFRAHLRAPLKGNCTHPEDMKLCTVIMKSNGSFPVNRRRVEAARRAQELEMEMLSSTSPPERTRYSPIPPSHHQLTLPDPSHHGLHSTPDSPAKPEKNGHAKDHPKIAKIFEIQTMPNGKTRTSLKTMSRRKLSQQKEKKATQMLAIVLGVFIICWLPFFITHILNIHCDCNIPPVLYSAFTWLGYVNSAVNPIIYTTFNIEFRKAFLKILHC

Row | SMILES | IC50 [1] [µM] | Distance of central district activity [2] [cm] | Total distance traveled [2] [cm] | distance of center square activity, effect in words [2] | total distance of spontaneous activity, effect in words [2] | number of arm entries in Y-maze, effect in words (Cuprizone model mice) | spontaneous alternation in Y-maze, effect in words (Cuprizone model mice) | total distance of spontaneous activity in open-field test, effect in words (Cuprizone model mice) | MBP content in frontal cortex, effect in words [3] | number of Iba-1-labeled microglial cells in the brain, effect in words [4]
1 | COc1ccccc1N1CCN(CCCCOc2cc(O)c3c(c2)OC(c2ccc(C)cc2)CC3=O)CC1 (stereo not drawn) [Compound P2, 5-hydroxy-2-(4-methylphenyl)-7-(4-(4-(2-methoxyphenyl)-piperazin-1-yl)-butoxy)-chroman-4-one] | 0.346 | – | – | – | – | – | – | – | – | –
2 | COc1ccc(C2CC(=O)c3c(O)cc(OCCCCN4CCC(c5noc6cc(F)ccc56)CC4)cc3O2)cc1 (stereo not drawn) [Compound P5, 5-hydroxy-2-(4-methoxyphenyl)-7-(4-(4-(6-fluoro-benzo[d]isoxazol-3-yl)-piperidin-1-yl)-butoxy)-chroman-4-one] | 0.0513 | 9211 ± 1845 | 30914 ± 3351 | could shorten the total distance of spontaneous activity and the distance of center square activity | could shorten the total distance of spontaneous activity | could reduce the number of arm entries | enhance the spontaneous alternation | could shorten the total distance of spontaneous activity | could significantly enhance the MBP content | –
3 | COc1ccc(C2CC(=O)c3c(O)cc(OCCCN4CCC(c5noc6cc(F)ccc56)CC4)cc3O2)cc1 (stereo not drawn) [Compound P7, 5-hydroxy-2-(4-methoxyphenyl)-7-(4-(4-(6-fluoro-benzo[d]isoxazol-3-yl)-piperidin-1-yl)-propoxy)-chroman-4-one] | 0.116 | 7913 ± 1666 | 37051 ± 4308 | could shorten the total distance of spontaneous activity and the distance of center square activity | could shorten the total distance of spontaneous activity | – | – | – | – | –
4 | O=C1CC(c2ccc(F)cc2)Oc2cc(OCCCCN3CCC(c4noc5cc(F)ccc45)CC3)cc(O)c21 (stereo not drawn) [Compound P4, 5-hydroxy-2-(4-fluorophenyl)-7-(4-(4-(6-fluoro-benzo[d]isoxazol-3-yl)-piperidin-1-yI)-butoxy)-chroman-4-one] | 0.0877 | 11098 ± 1422 | 39222 ± 4300 | – | – | – | – | – | could significantly enhance the MBP content | –
5 | COc1ccc(C2CC(=O)c3c(O)cc(OCCCCN4CCN(c5ccccc5OC)CC4)cc3O2)cc1 (stereo not drawn) [Compound P1, 5-hydroxy-2-(4-methoxyphenyl)-7-(4-(4-(2-methoxyphenyl)-piperazin-1-yl)-butoxy)-chroman-4-one] | 0.205 | – | – | – | – | – | – | – | – | –
6 | COc1ccc(C2CC(=O)c3c(O)cc(OCCCN4CCN(c5ccccc5OC)CC4)cc3O2)cc1 (stereo not drawn) [Compound P6, 5-hydroxy-2-(4-methoxyphenyl)-7-(4-(4-(2-methoxyphenyl)-piperazin-1-yl)-propoxy)-chroman-4-one] | 0.22 | 10181 ± 2110 | 46922 ± 2233 | could shorten the total distance of spontaneous activity and the distance of center square activity | could shorten the total distance of spontaneous activity | could reduce the number of arm entries | enhance the spontaneous alternation | could shorten the total distance of spontaneous activity | – | could significantly reduce the number of microglial cells
7 | COc1ccccc1N1CCN(CCCCOc2cc(O)c3c(c2)OC(c2ccc(F)cc2)CC3=O)CC1 (stereo not drawn) [Compound P3, 5-hydroxy-2-(4-fluorophenyl)-7-(4-(4-(2-methoxyphenyl)-piperazin-1-yl)-butoxy)-chroman-4-one] | 0.0573 | – | – | – | – | – | – | – | – | –
